Source: patent publication US20250368651A1 (priority 2022, published 2025)

What was measured:
SMN2 exon 7 splicing = experiment: Cell-based SMN2 splicing assay in 293T cells (minigene); set-up: species or system human; settings: Homo sapiens, HEK-293T; Table 3; read-out: SMN2 Splicing EC50
[1] = biological target: COVID RNA (SARS-CoV-2 RNA SL5 per FIG. 8); experiment: FP binding, Kd for COVID RNA
in vitro = settings: human

| SMILES | EC50 (SMN2 exon 7 splicing) [nM] | Kd ([1]; Table 3) [nM] | Kd ([1]; Table 4) [nM] | CC50 (in vitro) [nM] |
| --- | --- | --- | --- | --- |
| CCOC(=O)C1=C(Nc2ccccc2)S/C(=C\c2ccc(OCCOCCn3cc(COCCOCCOCCOCCN4CCN(c5ccc6cc(-c7cn8cc(C)nc(C)c8n7)c(=O)oc6c5)CC4C)nn3)c(O)c2)C1=O (stereo in doubt) [Compound C9, (S,Z)-ethyl 5-(4-(2-(2-(4-(13-(4-(3-(6,8-dimethylimidazo[1,2-a]pyrazin-2-yl)-2-oxo-2H-chromen-7-yl)-2-methylpiperazin-1-yl)-2,5,8,11-tetraoxatridecyl)-1H-1,2,3-triazol-1-yl)ethoxy)ethoxy)-3-hydroxybenzylidene)-4-oxo-2-(phenylamino)-4,5-dihydrothiophene-3-carboxylate] | > 8000 |  |  |  |
| Cc1cn2cc(-c3c(OCCNC(=O)OC(C)(C)C)c4ccc(N5CCN[C@@H](C)C5)cc4oc3=O)nc2c(C)n1 [Compound C7] | > 8000 |  |  |  |
| CC(=O)N1CCN(c2ccc3cc(-c4cn5cc(C)nc(C)c5n4)c(=O)oc3c2)C[C@@H]1C [Compound C8, (S)-7-(4-acetyl-3-methylpiperazin-1-yl)-3-(6,8-dimethylimidazo[1,2-a]pyrazin-2-yl)-2H-chromen-2-one] | > 8000 |  |  |  |
| Cc1cn2cc(-c3cc4ccc(N5CCN(CCOCCN=[N+]=[N-])[C@@H](C)C5)cc4oc3=O)nc2c(C)n1 [Compound C12, (S)-7-(4-(2-(2-azidoethoxy)ethyl)-3-methylpiperazin-1-yl)-3-(6,8-dimethylimidazo[1,2-a]pyrazin-2-yl)-2H-chromen-2-one] | 180 ± 40 | 2600 ± 800 | 2600 ± 800 |  |
| Cc1cn2cc(-c3c(Br)c4ccc(N5CCN[C@@H](C)C5)cc4oc3=O)nc2c(C)n1 [Compound C13, (S)-4-bromo-3-(6,8-dimethylimidazo[1,2-a]pyrazin-2-yl)-7-(3-methylpiperazin-1-yl)-2H-chromen-2-one] | 450 ± 180 |  |  |  |
| Cc1c(-c2ccccc2Cl)c(=O)oc2cc(N3CCN(C)CC3)ccc12 [Compound C21, 3-(2-chlorophenyl)-4-methyl-7-(4-methylpiperazin-1-yl)-2H-chromen-2-one] | > 8000 |  |  |  |
| CN1CCN(c2cc(F)c3cc(-c4ccccc4Cl)c(=O)oc3c2)CC1 [Compound C24, 3-(2-chlorophenyl)-5-fluoro-7-(4-methylpiperazin-1-yl)-2H-chromen-2-one] | > 8000 |  |  |  |
| O=c1oc2cc(N3CCNCC3)ccc2cc1-c1cn2ccc(Cl)cc2n1 [Compound C32, 3-(7-chloroimidazo[1,2-a]pyridin-2-yl)-7-(piperazin-1-yl)-2H-chromen-2-one] | > 8000 | 400 ± 40 | 400 ± 400 |  |
| O=c1oc2cc(N3CCNCC3)ccc2cc1-c1cn2cc(Cl)ccc2n1 [Compound C33, 3-(6-chloroimidazo[1,2-a]pyridin-2-yl)-7-(piperazin-1-yl)-2H-chromen-2-one] |  |  |  | 11600 |
| COc1ccn2cc(-c3cc4ccc(N5CCNCC5)cc4oc3=O)nc2c1 [Compound C34, 3-(7-methoxyimidazo[1,2-a]pyridin-2-yl)-7-(piperazin-1-yl)-2H-chromen-2-one] |  |  |  | 3600 |
| COc1ccc2nc(-c3cc4ccc(N5CCNCC5)cc4oc3=O)cn2c1 [Compound C35, 3-(6-methoxyimidazo[1,2-a]pyridin-2-yl)-7-(piperazin-1-yl)-2H-chromen-2-one] |  |  |  | 3000 |
| O=c1oc2cc(N3CCNCC3)ccc2cc1-c1cn2ccc(C(F)(F)F)cc2n1 [Compound C36, 7-(piperazin-1-yl)-3-(7-(trifluoromethyl)imidazo[1,2-a]pyridin-2-yl)-2H-chromen-2-one] |  | 1400 ± 400 | 1390 ± 400 |  |
| O=c1oc2cc(N3CCNCC3)ccc2cc1-c1cn2cc(C(F)(F)F)ccc2n1 [Compound C37, 7-(piperazin-1-yl)-3-(6-(trifluoromethyl)imidazo[1,2-a]pyridin-2-yl)-2H-chromen-2-one] |  |  |  | 14100 |
| O=c1oc2cc(N3CCNCC3)ccc2cc1-c1ccc2ncccc2c1 [Compound C38] | > 8000 |  |  | 1800 |
| O=c1oc2cc(N3CCNCC3)ccc2cc1-c1ccc2ccccc2c1 [Compound C39] | > 8000 |  |  | 7900 |
